Our source for the half-life values is PubChem BioAssay AID1508603 (National Center for Advancing Translational Sciences (NCATS), 2020).

The term half-life denotes how long it takes for the measured level to halve.

Molecules are shown by their SMILES.

The data set has as its system human liver cytosol stability, half-life. As to the kind of experiment: NCATS Human Liver Cytosol Stability Profiling. The note with it: higher = more stable. As for the experimental part: Assay submitter (PI): Pranav Shah Ph.D.
NIH Center for Advancing Translational Sciences
Over the last few decades, chemists have become skilled at designing compounds that avoid cytochrome P (CYP) 450 mediated metabolism. Typical screening assays are performed in liver microsomal fractions and it is possible to overlook the contribution of cytosolic enzymes until much later in the drug discovery process. Few data exist on cytosolic enzyme-mediated metabolism and no reliable tools are available to chemists to help design away from such liabilities. In this study, we screened 1450 compounds for liver cytosol-mediated metabolic stability and extracted transformation rules that might help medicinal chemists in optimizing compounds with these liabilities. […] Matched molecular pairs analysis was performed in conjunction with qualitative-structure activity relationship modeling to identify chemical structure transformations affecting cytosolic stability. The transformation rules were prospectively validated on the test set. In addition, selected rules were validated on a diverse chemical library and the resulting pairs were experimentally tested to confirm whether the identified transformations could be generalized. The validation results, comprising nearly 250 library compounds and corresponding half-life data, are made publicly available. The datasets were also used to generate in silico classification models, based on different molecular descriptors and machine learning methods, to predict cytosol-mediated liabilities. To the best of our knowledge, this is the first systematic in silico effort to address cytosolic enzyme-mediated liabilities (Shah 2020).
Shah, P., Siramshetty, V.B., Zakharov, A.V. et al. Predicting liver cytosol stability of small molecules. J Cheminform 12, 21 (2020). https://doi.org/10.1186/s13321-020-00426-7
Compounds are classified as unstable (t 1/2 < 30 min) or stable (t 1/2 > 30 min).
1. Shah, P. et al. An Automated High-Throughput Metabolic Stability Assay Using an Integrated High-Resolution Accurate Mass Method and Automated Data Analysis Software. Drug Metab Dispos 44, 1653-1661 (2016). PMID 27417180

`COc1ccc(CN2CCC(N3Cc4cccn4C3=O)CC2)cc1`: the half-life is greater than 2 h.

`COCCNC(=O)c1nc2sccn2c1-c1cccc(C#N)c1` showed a half-life greater than 2 h.

For the compound `Cn1ccc(NC(=O)c2ccc(-c3ncc4cnc(-c5cccc(F)c5)cn34)cc2)n1`, the half-life is 0.553 h.

As for `CN(CC1CCOC1)C(=O)Nc1cccc(F)c1` (stereo unspecified), the half-life was greater than 2 h.

In the case of `N#Cc1cccc(CN2CC[C@H](c3nc4ccccc4[nH]3)C2)c1`, the half-life was greater than 2 h.

In turn, `CCOc1cc(=O)n2c(c1C(=O)Nc1ccc(S(N)(=O)=O)cc1)CCCC2` came in with a half-life greater than 2 h.

Turning to `COC(=O)[C@@H]1Cc2ncn(C)c2CN1C(=O)c1ccc(C#N)cc1`, the half-life is greater than 2 h.

For `N#Cc1cccc(-c2c(C(=O)N3CCOCC3)nc3sccn23)c1`, the half-life is greater than 2 h.

`COCCOC1CCN(C(=O)Nc2ccccc2)CC1` had a half-life greater than 2 h.

Compound `COc1ccc(OC2CN(Cc3ccc(C#N)cc3)C2)cc1` gave a half-life greater than 2 h.

`CN1CCOC2(CCN(Cc3cccc(C#N)c3)CC2)C1=O` gave a half-life greater than 2 h.

Take `COc1ccc(C(=O)N2CCCOCCNC(=O)CC2)cc1`: the half-life worked out at 1.17 h.

Turning to `N#Cc1cccc(-c2cn3c(n2)N(C(=O)c2ccco2)CCC3)c1`, the half-life was determined as 0.612 h.

`CN1CCC(OC2CCN(C(=O)c3ccccc3)CC2)CC1` had a half-life greater than 2 h.

On to `N#Cc1ccc(CN2CCC3(CC2)CC(=O)c2ccccc2O3)cc1`, for which the half-life was greater than 2 h.

`COc1ccc(CN2CC(Oc3ccc(F)c(C)c3)C2)cc1` registered a half-life of 0.36 h.

`Cc1ccccc1-c1[nH]nc2ncc(-c3cccc(F)c3)nc12` returned a half-life of 0.817 h.

Turning to `C[C@@]1(O)CCN(Cc2ccc(C#N)cc2)C[C@H]1N1CCCC1`, the half-life is greater than 2 h.

In turn, `N#Cc1cccc(-c2cn3c(n2)N(C(=O)c2ccoc2)CCC3)c1` gave a half-life greater than 2 h.

On to `O=C(c1ccoc1)N1CCC(Oc2cccc(F)c2)C1` (stereo unspecified), for which the half-life was determined as 1.18 h.

With `O=C(c1ccoc1)N1CCC(Oc2ccccc2)C1` (stereo unspecified), the half-life is greater than 2 h.

Take `CC1(c2ccccc2)N(Cc2ccccc2)C(=O)OC12CCN(Cc1ccc(C(=O)O)cc1)CC2` (stereo unspecified): the half-life is greater than 2 h.

The compound `Cc1cc2cc(-c3c(C)noc3C)nc(Nc3ccccc3)c2o1` displayed a half-life of 0.593 h.

The compound `N#Cc1ccccc1CN1CCC2(CC1)CC(O)CCO2` (stereo unspecified) yielded a half-life of 1.34 h.

Compound `CN(Cc1ccccc1)C1CCOc2ccccc21` (stereo unspecified) registered a half-life of 0.127 h.

The compound `O=C(c1cccc(F)c1)N1CCC(Oc2cccnc2)C1` (stereo unspecified) had a half-life greater than 2 h.

As to `COc1cccc(-c2c(C(=O)Nc3ccc(C)cc3)nc3sccn23)c1`, the half-life was found to be 1.55 h.

For the compound `COc1ccc(CN2CC[C@H](c3nnc(C)o3)C2)cc1`, the half-life was greater than 2 h.

`N#Cc1cccc(-c2c(C(=O)N3CCCCC3)nc3sccn23)c1` came in with a half-life of 1.72 h.

In turn, `N#Cc1ccc(CN2C[C@@H](CO)[C@H](c3ccncc3)C2)cc1` had a half-life of 1.78 h.

In the case of `CCOCCOC1CCN(C(=O)Nc2cccc(F)c2)CC1`, the half-life is greater than 2 h.

`Cc1cc2cc(-c3c(C)noc3C)nc(Nc3cccc(F)c3)c2o1` displayed a half-life of 0.137 h.

`CN(Cc1cccc(F)c1)C1CCOc2ccccc21` (stereo unspecified): the half-life was found to be 0.143 h.

Turning to `O=C(O)c1ccc(-c2ncc3cnc(-c4cccc(F)c4)cn23)cc1`, the half-life is greater than 2 h.

For the compound `N#Cc1ccc(C(=O)N2CCCOCCNC(=O)CC2)cc1`, the half-life is greater than 2 h.

In turn, `COc1ccc(CN2CC(N3CCc4ccccc43)C2)cc1` registered a half-life of 1.37 h.

`Cc1cc(F)ccc1OC1CN(Cc2ccc(C#N)cc2)C1`: the half-life came to 0.59 h.

For `COc1ccccc1-c1[nH]nc2ncc(-c3cccc(F)c3)nc12`, the half-life was greater than 2 h.

The compound `N#Cc1ccc(C(=O)N2CCOC[C@H](Oc3cnccn3)C2)cc1` came in with a half-life greater than 2 h.

As to `N#Cc1ccc(CN2CCC(N3Cc4cccn4C3=O)CC2)cc1`, the half-life is greater than 2 h.

The compound `COc1ccc(-c2[nH]nc3ncc(-c4cccc(F)c4)nc23)c(C)c1` gave a half-life of 1.26 h.

`N#Cc1ccc(CN2CCC(N3CCOC3=O)CC2)cc1` showed a half-life greater than 2 h.

`N#Cc1cccc(CN2CCOC[C@H](O)C2)c1` came in with a half-life of 0.852 h.

With `O=c1cc(N2CCOCC2)oc2c(-c3cccc(F)c3)nccc12`, the half-life is greater than 2 h.

With `CN(CC1CCOC1)C(=O)Nc1ccccc1` (stereo unspecified), the half-life is greater than 2 h.

On to `COc1cccc(CN2CCOC[C@H](O)C2)c1`, for which the half-life amounted to 0.47 h.

Compound `CN1c2cc(C(=O)Nc3ccc(C#N)cc3)ccc2C(=O)N2CCCCC21` (stereo unspecified) gave a half-life greater than 2 h.

Regarding `Cc1noc(C)c1-c1cc(-c2cccc(F)c2)cn2cncc12`, the half-life turned out to be 1.5 h.

The compound `N#Cc1cccc(CN2CC(COc3ccccc3)C3(C2)CN(c2ccccc2)C3)c1` (stereo unspecified) had a half-life of 0.693 h.

The compound `O=C(N1CCN([S+](=O)([O-])c2ccccc2)CC1)N1CC2CC(C1)[C@H]1CCCC(=O)N1C2` (stereo partly specified) displayed a half-life greater than 2 h.

As to `O=C(NCCc1cnc[nH]1)c1ccc(-c2ncc3cnc(-c4cccc(F)c4)cn23)cc1`, the half-life turned out to be 0.248 h.

In the case of `Cc1cc(OC2CN(Cc3ccc(C#N)cc3)C2)ccc1F`, the half-life was determined as 0.73 h.

`N#Cc1cncc(N2CC3CCC(C2)N3CC(F)(F)F)c1` returned a half-life greater than 2 h.

Compound `O=C1COCCN1c1cc(-c2cccc(F)c2)cn2cncc12` registered a half-life greater than 2 h.

`COc1ccc(CN2CC(Oc3ccc(OC)cc3)C2)cc1` yielded a half-life greater than 2 h.

The compound `CC(C)(C)c1coc([C@@H]2COCCN2Cc2ccc(C(=O)O)cc2)n1` showed a half-life of 1.88 h.

As to `N#Cc1ccc(CN2CC(Oc3ccc(F)c(F)c3)C2)cc1`, the half-life is 1.19 h.

Consider `N#Cc1cccc(-c2cn3c(n2)N(C(=O)c2cccs2)CCC3)c1`, for which the half-life is greater than 2 h.

On to `N#Cc1cccc(CN2CCOC[C@H]2c2ncc(-c3ccc(F)cc3)[nH]2)c1`, for which the half-life worked out at 1.58 h.

`CCN1CCN(C(=O)C2Cn3cccc3C(=O)N2CC(C)C)CC1` (stereo unspecified) had a half-life greater than 2 h.

`CN1c2cc(C(=O)Nc3ccc(S(N)(=O)=O)cc3)ccc2C(=O)N2CCCCC21` (stereo unspecified): the half-life was greater than 2 h.

For `N#Cc1ccc(CN2CC(Oc3ccc(F)cc3F)C2)cc1`, the half-life amounted to 1.05 h.

Compound `COc1ccc(C(=O)N2C[C@@H](CO)[C@H](N(C)C)C2)cc1` had a half-life greater than 2 h.

As for `Fc1cccc(-c2cnc(Nc3cncnc3)c3c2CCO3)c1`, the half-life came to 0.16 h.

`N#Cc1ccc(CN2CCC(N3CCNC3=O)CC2)cc1` yielded a half-life of 1.55 h.

Take `COc1ccc(CN2CCC(N3CCOC3=O)CC2)cc1`: the half-life was greater than 2 h.

As to `CCOc1cc(=O)n2c(c1C(=O)Nc1ccc(C#N)cc1)CCCC2`, the half-life was found to be 1.69 h.

The compound `COc1cccc(-c2cn3c(n2)N(C(=O)c2cccs2)CCC3)c1` displayed a half-life greater than 2 h.

Turning to `CC(=O)N1CCC(Cc2ccc(C(=O)NC3CC3)cc2)CC1`, the half-life stood at 1.33 h.

In the case of `COc1ccc(CN2CC[C@@](C)(O)[C@H](N3CCCC3)C2)cc1`, the half-life is greater than 2 h.

In the case of `N#Cc1cccc(CN2C[C@@H](CO)[C@H](c3ccccn3)C2)c1`, the half-life came to 0.957 h.

Consider `COc1ccc(CN2CC(Oc3ccc(F)cc3F)C2)cc1`, for which the half-life was determined as 0.605 h.

For the compound `COc1cccc(-c2c(C(=O)N3CCCCC3)nc3sccn23)c1`, the half-life is 1.9 h.

Regarding `Cc1ccc(NC(=O)c2nc3sccn3c2-c2cccc(C#N)c2)cc1`, the half-life stood at 0.29 h.

As for `CCN1CCN(C(=O)c2cc(-c3ccccc3OC)c3nncn3n2)CC1`, the half-life is greater than 2 h.

As to `COc1ccc(C(=O)N2CCC3(CCC3OC)CC2)cc1` (stereo unspecified), the half-life amounted to 1.17 h.

Regarding `CN1CCN(C(=O)c2ccc3nccn3c2)CC1`, the half-life is greater than 2 h.

In turn, `CC(C)(C)c1coc([C@@H]2COCCN2Cc2cccc(C#N)c2)n1` showed a half-life of 0.943 h.

The compound `Cc1ccc(-c2noc([C@@H]3Cc4nc[nH]c4CN3Cc3cccc(C#N)c3)n2)cc1` showed a half-life of 1.06 h.

For `COc1cccc(-c2cn3c(n2)N(C(=O)c2ccoc2)CCC3)c1`, the half-life was 1.86 h.

`Cc1nnc([C@H]2CCN(Cc3ccc(C#N)cc3)C2)o1`: the half-life was greater than 2 h.

Compound `O=C(c1cccnc1)N1CCC(Oc2cccc(F)c2)C1` (stereo unspecified) had a half-life greater than 2 h.

Compound `CC(C)CN1C(=O)c2cccn2CC1C(=O)N1CCN(C)CC1` (stereo unspecified) gave a half-life of 1.79 h.

Consider `Cn1cnc2ccc(Nc3cccc(F)c3)nc2c1=O`, for which the half-life was 1.92 h.

`N#Cc1cccc(CN2CC[C@H](c3nnc(-c4ccco4)o3)C2)c1` yielded a half-life greater than 2 h.

Compound `O=C(N1CCN(S(=O)(=O)c2cccc(F)c2)CC1)N1CC2CC(C1)[C@H]1CCCC(=O)N1C2` (stereo partly specified) gave a half-life greater than 2 h.

`CCN1CCN(C(=O)Cc2cccn2-c2ccc(F)cc2)CC1` had a half-life greater than 2 h.

In turn, `COc1ccc(CN2CCC3(CC2)CC(=O)c2ccccc2O3)cc1` had a half-life greater than 2 h.

As for `O=C(c1ccncc1)N1CCC(Oc2cccc(F)c2)C1` (stereo unspecified), the half-life was greater than 2 h.

For the compound `CN1CCC(OC2CCN(C(=O)c3cccc(F)c3)CC2)CC1`, the half-life was greater than 2 h.

Take `N#Cc1cccc(-c2c(C(=O)NC3CC3)nc3sccn23)c1`: the half-life turned out to be 1.59 h.
